# According to patent US7943774B2 (priority 2008, dated 2011):
# Experiment: log P (pH2.3)
# Format: physicochemical
# Conditions: method [a]: HPLC, acidic range, pH 2.3, 0.1% aqueous phosphoric acid and acetonitrile
row,SMILES,log p
1,Cc1cc(C)n(CC(=O)N2CCC(c3nc(CCc4ccccc4)cs3)CC2)n1 [Example I-54],2.86^[a]

# Same assay, conditions: method [b]: LC-MS, acidic range, pH 2.7, 0.1% aqueous formic acid and acetonitrile
row,SMILES,log p
1,Cc1cc(C(F)(F)F)nn1CC(=O)N1CCC(c2nc(/C=C\c3ccccc3)cs2)CC1 [Example I-1],3.91^[b]
2,O=C(Cn1ccc(C(F)(F)F)n1)N1CCC(c2nc(/C=C\c3ccccc3)cs2)CC1 [Example I-7],3.72^[b]
3,Cc1c(Cl)c(C(F)(F)F)nn1CC(=O)N1CCC(c2nc(/C=C\c3ccccc3)cs2)CC1 [Example I-8],4.56^[b]
4,Cc1cc(C(F)(F)F)nn1CC(=O)N1CCC(c2nc(/C=C\c3ccc(Cl)cc3)cs2)CC1 [Example I-9],4.41^[b]
5,O=C(Cn1ccc(C(F)(F)F)n1)N1CCC(c2nc(/C=C\c3ccc(Cl)cc3)cs2)CC1 [Example I-10],4.2^[b ]
6,Cc1c(Cl)c(C(F)(F)F)nn1CC(=O)N1CCC(c2nc(/C=C\c3ccc(Cl)cc3)cs2)CC1 [Example I-11],4.92^[b]
7,COc1ccc(/C=C\c2csc(C3CCN(C(=O)Cn4nc(C(F)(F)F)cc4C)CC3)n2)cc1 [Example I-12],3.9^[b]
8,COc1ccc(/C=C\c2csc(C3CCN(C(=O)Cn4nc(C(F)(F)F)c(Cl)c4C)CC3)n2)cc1 [Example I-14],4.46^[b]
9,Cc1cc(C(F)(F)F)nn1CC(=O)N1CCC(c2nc(/C=C\c3cccc(C(F)(F)F)c3)cs2)CC1 [Example I-15],4.51^[b]
10,O=C(Cn1ccc(C(F)(F)F)n1)N1CCC(c2nc(/C=C\c3cccc(C(F)(F)F)c3)cs2)CC1 [Example I-16],4.3^[b]
11,Cc1c(Cl)c(C(F)(F)F)nn1CC(=O)N1CCC(c2nc(/C=C\c3cccc(C(F)(F)F)c3)cs2)CC1 [Example I-17],5.03^[b]
12,O=C(Cn1ccc(C(F)(F)F)n1)N1CCC(c2nc(/C=C\c3cccc4ccccc34)cs2)CC1 [Example I-18],4.35^[b]
13,Cc1c(Cl)c(C(F)(F)F)nn1CC(=O)N1CCC(c2nc(/C=C\c3cccc4ccccc34)cs2)CC1 [Example I-19],5.14^[b]
14,O=C(Cn1ccc(C(F)(F)F)n1)N1CCC(c2nc(/C=C\c3ccc4ccccc4c3)cs2)CC1 [Example I-21],4.35^[b]
15,Cc1c(Cl)c(C(F)(F)F)nn1CC(=O)N1CCC(c2nc(/C=C\c3ccc4ccccc4c3)cs2)CC1 [Example I-22],5.08^[b]
16,Cc1cc(C(F)(F)F)nn1CC(=O)N1CCC(c2nc(/C=C\Cc3ccccc3)cs2)CC1 [Example I-23],4.41^[b]
17,Cc1cc(C(F)(F)F)nn1CC(=O)N1CCC(c2nc(/C=C/c3ccccc3)cs2)CC1 [Example I-26],3.99^[b]
18,Cc1cc(C(F)F)n(CC(=O)N2CCC(c3nc(CCc4ccccc4)cs3)CC2)n1 [Example I-35],3.37^[b]

row,SMILES,log p
1,O=C(Cn1nc(C(F)(F)F)cc1C(F)(F)F)N1CCC(c2nc(CCc3cccc4ccccc34)cs2)CC1 [Example I-43],4.89^[b]
2,O=C(Cn1ccc(C(F)(F)F)n1)N1CCC(c2nc(CCc3ccccc3)cs2)CC1 [Example I-55],3.57^[b]
3,O=C(Cc1cccc(C(F)(F)F)c1)N1CCC(c2nc(CCc3ccccc3)cs2)CC1 [Example I-56],4.26^[b]
4,O=C(Cc1cccc(Cl)c1)N1CCC(c2nc(CCc3ccccc3)cs2)CC1 [Example I-57],4.1^[b]
5,O=C(Cn1nc(C(F)(F)F)cc1C(F)(F)F)N1CCC(c2nc(CCc3ccccc3)cs2)CC1 [Example I-59],4.45^[b]
6,Cc1c(Cl)c(C(F)(F)F)nn1CC(=O)N1CCC(c2nc(CCc3ccccc3)cs2)CC1 [Example I-60],4.34^[b]
7,O=C(c1cccc(C(F)(F)F)c1)N1CCC(c2nc(CCc3ccccc3)cs2)CC1 [Example I-62],4.23^[b]
8,CC(C(=O)N1CCC(c2nc(CCc3ccccc3)cs2)CC1)n1ccc(C(F)(F)F)n1 (stereo not drawn) [Example I-68],3.93^[b]
9,O=C(Cn1cccn1)N1CCC(c2nc(CCc3ccccc3)cs2)CC1 [Example I-69],2.56^[b]
10,Cc1nc(C2CCN(C(=O)Cn3nc(C(F)(F)F)cc3C)CC2)sc1CC(C)C [Example I-73],3.75^[b]
11,Cc1cc(C)n(CC(=O)N2CCC(c3nc(/C=C\c4cccc5ccccc45)cs3)CC2)n1 [Example I-76],3.73^[b]
12,Cc1cc(C)n(CC(=O)N2CCC(c3nc(/C=C/c4cccc5ccccc45)cs3)CC2)n1 [Example I-77],3.58^[b]
13,Cc1cc(C)n(CC(=O)N2CCC(c3nc(CCCC(C)c4ccccc4)cs3)CC2)n1 (stereo not drawn) [Example I-83],3.83^[b]
14,Cc1cc(C)n(CC(=O)N2CCC(c3nc(/C=C/c4ccccc4)cs3)CC2)n1 [Example I-84],3.04^[b]
15,Cc1cc(C(F)(F)F)nn1CC(=O)N1CCC(c2nc(/C=C/c3cccc(C(F)(F)F)c3)cs2)CC1 [Example I-94],4.46^[b]
16,Cc1cc(C)n(CC(=O)N2CCC(c3nc(/C=C/c4cccc(C(F)(F)F)c4)cs3)CC2)n1 [Example I-96],3.56^[b]
17,O=C(Cc1c(F)ccc(F)c1F)N1CCC(c2nc(C#Cc3cccc4ccccc34)cs2)CC1 [Example I-97],4.71^[b]
18,Cc1cc(C(F)(F)F)nn1CC(=O)N1CCC(c2nc(C#Cc3ccccc3)cs2)CC1 [Example I-99],3.82^[b]

# Same assay, conditions: method [b]: LC-MS, acidic range, pH 2.7, 0.1% aqueous formic acid and acetonitrile; HPLC on reversed-phase C 18
row,SMILES,log p
1,Cc1ccccc1C=Cc1csc(C2CCN(C(=O)Cn3nc(C(F)(F)F)cc3C)CC2)n1 (mixture of isomers) [Example I-166],4.23^[b]
2,Cc1ccccc1C=Cc1csc(C2CCN(C(=O)Cn3nc(C(F)(F)F)cc3C(F)(F)F)CC2)n1 (mixture of isomers) [Example I-174],4.93^[b]
3,O=C(Cn1nc(C(F)(F)F)cc1C(F)(F)F)N1CCC(c2nc(C=Cc3ccccc3Br)cs2)CC1 (mixture of isomers) [Example I-175],4.99^[b]
4,O=C(Cn1nc(C(F)(F)F)cc1C(F)(F)F)N1CCC(c2nc(C=Cc3c(F)cccc3F)cs2)CC1 (mixture of isomers) [Example I-176],4.88^[b]
5,Cc1cc(C(F)(F)F)nn1CC(=O)N1CCC(c2nc(C=Cc3c(F)cccc3Cl)cs2)CC1 (mixture of isomers) [Example I-242],4.48^[b]

# Same assay, conditions: method [c]: LC-MS, neutral range, pH 7.8, 0.001 molar aqueous ammonium bicarbonate and acetonitrile
row,SMILES,log p
1,Cc1cc(C)n(CC(=O)N2CCC(c3nc(C#Cc4cccc5ccccc45)cs3)CC2)n1 [Example I-74],3.85^[c]
2,Cc1cc(C)n(CC(=O)N2CCC(c3nc(CCc4cccc5ccccc45)cs3)CC2)n1 [Example I-79],3.39^[c]
3,Cc1cc(C)n(CC(=O)N2CCC(c3nc(/C=C/CC(C)c4ccccc4)cs3)CC2)n1 (stereo not drawn) [Example I-85],3.83^[c]

# Same assay, conditions: reversed-phase HPLC column (C18); method [b]: LC-MS, acidic range, pH 2.7, 0.1% aqueous formic acid and acetonitrile
row,SMILES,chromatographic logP
1,"Cc1cc(C(F)(F)F)nn1CC(=O)N1CCC(c2nc(/C=C\c3ccc4ccccc4c3)cs2)CC1 [Example I-20, 2-[5-Methyl-3-(trifluoromethyl)-1H-pyrazol-1-yl]-1-(4-{4-[(Z)-2-(2-naphthyl)vinyl]-1,3-thiazol-2-yl}piperidin-1-yl)ethanone]",4.61
2,"CCCCC(=O)N1CCC(c2nc(CCc3ccccc3)cs2)CC1 [Example I-58, 1-{4-[4-(2-Phenylethyl)-1,3-thiazol-2-yl]piperidin-1-yl}pentan-1-one]",3.73
3,"O=C(c1cc(C(F)(F)F)ccc1C(F)(F)F)N1CCC(c2nc(CCc3ccccc3)cs2)CC1 [Example I-61, [2,5-Bis(trifluoromethyl)phenyl]{4-[4-(2-phenylethyl)-1,3-thiazol-2-yl]piperidin-1-yl}methanone]",4.67
4,"O=C(Cc1ccsc1)N1CCC(c2nc(CCc3ccccc3)cs2)CC1 [Example I-63, 1-{4-[4-(2-Phenylethyl)-1,3-thiazol-2-yl]piperidin-1-yl}-2-(thiophen-3-yl)ethanone]",3.47
5,"Cc1c(Cl)c(C(F)(F)F)nn1C(C)C(=O)N1CCC(c2nc(CCc3ccccc3)cs2)CC1 (stereo not drawn) [Example I-64, 2-[4-Chloro-5-methyl-3-(trifluoromethyl)-1H-pyrazol-1-yl]-1-{4-[4-(2-phenylethyl)-1,3-thiazol-2-yl]piperidin-1-yl}propan-1-one]",4.62
6,"Cn1ncc(CC(=O)N2CCC(c3nc(CCc4ccccc4)cs3)CC2)c1Cl [Example I-65, 2-(5-Chloro-1-methyl-1H-pyrazol-4-yl)-1-{4-[4-(2-phenylethyl)-1,3-thiazol-2-yl]piperidin-1-yl}ethanone]",2.98
7,"COc1ccc(CCC(=O)N2CCC(c3nc(CCc4ccccc4)cs3)CC2)cc1OC [Example I-66, 3-(3,4-Dimethoxyphenyl)-1-{4-[4-(2-phenylethyl)-1,3-thiazol-2-yl]piperidin-1-yl}propan-1-one]",3.43
8,"O=C(Cc1cc(C(F)(F)F)ccc1Cl)N1CCC(c2nc(CCc3ccccc3)cs2)CC1 [Example I-67, 2-[2-Chloro-5-(trifluoromethyl)phenyl]-1-{4-[4-(2-phenylethyl)-1,3-thiazol-2-yl]piperidin-1-yl}ethanone]",4.73
9,"O=C(Cn1cc2ccccc2n1)N1CCC(c2nc(CCc3ccccc3)cs2)CC1 [Example I-70, 2-(2H-Indazol-2-yl)-1-{4-[4-(2-phenylethyl)-1,3-thiazol-2-yl]piperidin-1-yl}ethanone]",3.14
10,"O=C(Cc1nc2ccccc2s1)N1CCC(c2nc(CCc3ccccc3)cs2)CC1 [Example I-71, 2-(1,3-Benzothiazol-2-yl)-1-{4-[4-(2-phenylethyl)-1,3-thiazol-2-yl]piperidin-1-yl}ethanone]",3.68
11,"Cc1cc(C(F)(F)F)nn1CC(=O)N1CCC(c2nc(CCc3ccccc3)c(Br)s2)CC1 [Example I-78, 1-{4-[5-Bromo-4-(2-phenylethyl)-1,3-thiazol-2-yl]piperidin-1-yl}-2-[5-methyl-3-(trifluoromethyl)-1H-pyrazol-1-yl]ethanone]",4.71
12,"C#Cc1csc(C2CCN(C(=O)Cn3nc(C(F)(F)F)cc3C)CC2)n1 [Example I-86, 1-[4-(4-Ethynyl-1,3-thiazol-2-yl)piperidin-1-yl]-2-[5-methyl-3-(trifluoromethyl)-1H-pyrazol-1-yl]ethanone]",2.57
